Reference: patent US20090023589A1, “METHODS FOR IDENTIFYING CONDITIONS AFFECTING A CELL STATE” (priority 2004, published 2009)

System: HL-60 cells
Experiment: Surface marker expression profile of HL-60 cells after combinatorial differentiation (flow cytometry, percent positive cells, hierarchical clustering)
Type: cell-based
Details: for monocyte signature profile (CD 14hi, CD11b/Mac-1hi, CD 13+, CD66b-): binary and ternary combinations, clustering on myeloid markers; for expression of cell surface marker CD 125w: med concentrations, sodium butyrate at pH 7.8
Description: HL-60 cells were used to study what factors are involved in cellular differentiation. At day 0, the cells were plated in wells using a 96 well plate at a seeding density of approximately 60,000 cells, appropriate cell media was added. […] Cells were induced with the factors in Table 1 and 2. At day 4, the cells were harvested and labeled with antibody (see Table 3) for cytometry. The labeling was accomplished by washing the cells with PBS (phosphate buffered saline). Then gamma globulin was used to block non-specific binding sites. The gamma globulin treatment lasted for approximately 20 minutes at room temperatures on a rocker shaker.
The antibody cocktail concentration for each antibody used was based on manufacturer's instruction adjusted for final cell number. The antibody cocktail was incubated for 30 minutes at room temperature on rocking shaker. Following the incubation, the cells were washed using PBS. The cells were resuspended in 1% ultrapure methanol free formaldehyde and refrigerated until analysis. The cells were analyzed using a BD FACSCalibur equipped with a high throughput sampler (HTS) which has a dual laser excitation line: argon (488 nm) and red diode (635 nm).
The positive control for these experiments was 100 nm vitamin D3 plus CD 14 antibody. The negative controls were (1) untreated cells plus antibody cocktails located on the plates; and (2) fresh untreated cells plus antibody cocktails located on separate plates.
HL-60 cells were exposed to five well studied chemical differentiation factors (dimethylsulfoxide (DMSO), Vitamin D3, Phorbol-12-myristate-13-acetate (PMA), Sodium butyrate+pH 7.8, and all-Trans Retinoic Acid (ATRA)) known to promote differentiation along three distinct pathways (neutrophil, monocyte, eosinophil/basophil) within the myeloid lineage. Differentiation was induced by creating binary and ternary five factor combinations using the five factors at three concentrations for the binary experiment and two concentrations for the ternary experiment.
To observe experiment-wide profiles of marker expression, we used the percentage of positive cells for all markers and constructed a profile for each combinatorial treatment. Hierarchical clustering orders the data so that the most similar profile are next to each other in the plot.
To refine cluster analysis with relevant information, one can choose specific cell surface markers. In order to test the validity of the experiment, we clustered based on cell surface markers known to be expressed in the myeloid lineage: CD66b, CD11b/Mac-1, CD13+CD 14 (FIG. 8 a,b). Cells which have differentiated toward the monocytic lineage have a CD 14^hi, CD11b/Mac-1^hi, CD 13^+, CD66b^− expression profile.

Structure (SMILES)	monocyte signature profile (CD 14hi, CD11b/Mac-1hi, CD 13+, CD66b-)	expression of cell surface marker CD 125w
CCCCCCCCCCCCCC(=O)O[C@@H]1[C@@H](C)[C@@]2(O)[C@@H](C=C(CO)C[C@]3(O)C(=O)C(C)=C[C@@H]23)[C@@H]2C(C)(C)[C@]12OC(C)=O [PMA, Phorbol-12-myristate-13-acetate]	contributed to the monocyte signature profile	
C=C1CC[C@H](O)C/C1=C/C=C1\CCC[C@]2(C)[C@@H]([C@H](C)CCCC(C)C)CC[C@@H]12 [Vitamin D3]	contributed to the monocyte signature profile	
CCCC(=O)[O-].[Na+] [sodium butyrate, Sodium butyrate]		neither DMSO^med nor sodium butyrate^med, pH 7.8 alone produced cells positive for CD 125w
C[S+](C)[O-] [DMSO, dimethylsulfoxide]		neither DMSO^med nor sodium butyrate^med, pH 7.8 alone produced cells positive for CD 125w
